Test: mn = molality of the nth substance listed, in mol/kg
Details: 101 kPa, Liquid; for speed of sound: Sing-around technique in a fixed-path interferometer; for mass density: Vibrating tube method

CC(C)[C@H](N)C(=O)O [L-valine] + O
Details | mass density, 288.15 K [kg/m3] | mass density, 298.15 K [kg/m3] | mass density, 308.15 K [kg/m3] | mass density, 318.15 K [kg/m3] | speed of sound, 288.15 K [m/s] | speed of sound, 298.15 K [m/s] | speed of sound, 308.15 K [m/s] | speed of sound, 318.15 K [m/s]
m1 = 0.00555 | 999.264 | 997.195 | 994.174 | 990.28 | 1467.4 | 1497.5 | 1520.4 | 1537.1
m1 = 0.02398 | 999.773 | 997.685 | 994.647 | 990.74 | 1467.3 | 1497.4 | 1520.4 | 1537.4
m1 = 0.03504 | 1000.08 | 997.977 | 994.929 | 991.014 | 1469.7 | 1499.6 | 1522 | 1538.7
m1 = 0.05824 | 1000.71 | 998.588 | 995.518 | 991.588 | 1469.6 | 1499.7 | 1522.6 | 1539
m1 = 0.07873 | 1001.27 | 999.124 | 996.034 | 992.09 | 1472.8 | 1502.4 | 1525 | 1541.2
m1 = 0.09938 | 1001.83 | 999.658 | 996.551 | 992.593 | 1474.8 | 1504.4 | 1526.9 | 1542.7
m1 = 0.2068 | 1004.69 | 1002.41 | 999.213 | 995.181 | 1477 | 1506.2 | 1528.2 | 1544.4
m1 = 0.2992 | 1007.1 | 1004.73 | 1001.45 | 997.351 | 1488.4 | 1516.6 | 1537.8 | 1552.5
m1 = 0.4017 | 1009.7 | 1007.24 | 1003.87 | 999.709 | 1497.2 | 1524.8 | 1545.2 | 1560.4

C[C@H](N)C(=O)O [(S)-2-aminopropanoic acid] + O
Details | mass density, 288.15 K [kg/m3] | mass density, 298.15 K [kg/m3] | mass density, 308.15 K [kg/m3] | mass density, 318.15 K [kg/m3] | speed of sound, 288.15 K [m/s] | speed of sound, 298.15 K [m/s] | speed of sound, 308.15 K [m/s] | speed of sound, 318.15 K [m/s]
m1 = 0.00939 | 999.393 | 997.32 | 994.294 | 990.395 | 1467.6 | 1497.9 | 1520.8 | 1537
m1 = 0.04689 | 1000.52 | 998.405 | 995.339 | 991.404 | 1469.9 | 1499.8 | 1522.7 | 1539.2
m1 = 0.09896 | 1002.07 | 999.9 | 996.777 | 992.791 | 1472.8 | 1502.8 | 1525.5 | 1542
m1 = 0.2003 | 1005.04 | 1002.78 | 999.545 | 995.459 | 1480.3 | 1509.6 | 1531.8 | 1547.9
m1 = 0.2979 | 1007.86 | 1005.5 | 1002.16 | 997.981 | 1487.3 | 1515.9 | 1537.9 | 1553.2
m1 = 0.3997 | 1010.74 | 1008.28 | 1004.85 | 1000.56 | 1494.3 | 1522.7 | 1544 | 1558.7
m1 = 0.4941 | 1013.38 | 1010.81 | 1007.28 | 1002.91 | 1500.3 | 1528 | 1549 | 1564.1
m1 = 0.6099 | 1016.55 | 1013.87 | 1010.22 | 1005.75 | 1509.5 | 1536.7 | 1556.8 | 1571.4
m1 = 0.6973 | 1018.88 | 1016.12 | 1012.38 | 1007.84 | 1513.3 | 1540.4 | 1560.7 | 1574.7
m1 = 0.7978 | 1021.55 | 1018.68 | 1014.85 | 1010.19 | 1520 | 1546.2 | 1566 | 1580.9

NCC(=O)O [2-aminoacetic acid] + O
Details | mass density, 288.15 K [kg/m3] | mass density, 298.15 K [kg/m3] | mass density, 308.15 K [kg/m3] | mass density, 318.15 K [kg/m3] | speed of sound, 288.15 K [m/s] | speed of sound, 298.15 K [m/s] | speed of sound, 308.15 K [m/s] | speed of sound, 318.15 K [m/s]
m1 = 0.01207 | 999.51 | 997.439 | 994.412 | 990.513 | 1467.2 | 1497.7 | 1520 | 1537.2
m1 = 0.0523 | 1000.84 | 998.74 | – | 991.747 | 1470.1 | 1500.1 | 1522.9 | 1538.9
m1 = 0.1037 | 1002.52 | 1000.39 | 997.281 | 993.309 | 1472.3 | 1502.3 | 1524.7 | 1541.1
m1 = 0.2037 | 1005.77 | 1003.57 | 1000.37 | 996.317 | 1477.8 | 1507.2 | 1529.7 | 1545.8
m1 = 0.3068 | 1009.07 | 1006.8 | 1003.51 | – | 1483.4 | 1512.4 | 1534.6 | 1551.4
m1 = 0.4124 | 1012.4 | 1010.06 | 1006.68 | 1002.46 | 1488.7 | 1517.8 | 1539.7 | 1555.4
m1 = 0.5028 | 1015.22 | 1012.82 | 1009.36 | 1005.06 | 1494.5 | 1523 | 1543.8 | 1560.2
m1 = 0.6058 | 1018.38 | 1015.9 | 1012.35 | 1007.97 | 1499.2 | 1527.3 | 1548.7 | 1564.1
m1 = 0.6829 | 1020.71 | 1018.19 | 1014.55 | 1010.1 | 1503.4 | 1531.3 | 1552.5 | 1567.7
m1 = 0.82 | 1024.83 | 1022.23 | 1018.45 | 1013.89 | 1510.2 | 1537.7 | 1558.6 | 1573.5
